{"source": "BindingDB's records for doi:10.1016/j.bmcl.2016.06.045", "about": "(China Pharmaceutical University, 2016)", "note": "pIC50: −log10 of the molar value.", "data": [{"experiment": "Inhibition of PARP1 in human A549 cells assessed as potentiation of TMZ-mediated cytotoxicity by measuring TMZ IC50 for growth inhibition at 0.5 uM by SRB assay (Rvb TMZ IC50 = 295 uM)", "values": [{"compound": "C[C@]1(c2nc3c(C(N)=O)c(F)ccc3[nH]2)CCCN1", "pIC50": 3.47}, {"compound": "NC(=O)c1c(F)ccc2[nH]c(-c3ccc(N4CCOCC4)cc3)nc12", "pIC50": 3.88}, {"compound": "CCCN1CCC(c2nc3c(C(N)=O)c(F)ccc3[nH]2)CC1", "pIC50": 3.82}, {"compound": "NC(=O)c1c(F)ccc2[nH]c(-c3ccc(N4CCNCC4)cc3)nc12", "pIC50": 3.73}, {"compound": "CN1CCC[C@@]1(C)c1nc2c(C(N)=O)c(F)ccc2[nH]1", "pIC50": 3.51}, {"compound": "NC(=O)c1c(F)ccc2[nH]c(C3CCNCC3)nc12", "pIC50": 3.45}]}]}
